Experimental data taken from patent US20160109430A1, “METHODS FOR DRUG DISCOVERY” (Memorial Sloan-Kettering Cancer Center, priority 2014, published 2016).

Columns and labels:
Type in all cases: cell-based
[1] = system: LS8817 cells; experiment: Senescence-associated β-galactosidase / senescence analysis in LS8817 cells; conditions: for accumulation of SA-β-gal staining: 100 μM doxorubicin for five days
[2] = system: LS8107 cells; experiment: ATRX foci per cell by immunofluorescence in LS8107 cells; conditions: PD0332991 followed by shMDM2, compared to untreated or PD0332991 alone
Experimental: (§1) Cells were washed twice with PBS and fixed with 4% paraformaldehyde at room temperature for 20 minutes. Cells were again washed twice with PBS and treated with 0.5% triton X-100 in PBS. Cells were again washed twice with PBS and blocked in 5% BSA in PBS for 30 minutes at room temperature. Cells were incubated with anti-ATRX antibody, obtained from Bethyl, Cat No. A301-045A, diluted at 1:2000 in PBS (stock is provided at 1 mg/ml) overnight at 4 degrees Celsius. The following day, cells were washed twice with PBS and incubated with Alexa Fluor-488 anti-rabbit secondary diluted at 1:500 in PBS (stock was provided at 2 mg/ml) for one hour at room temperature. Cells were washed twice with PBS and incubated with 0.1 μg/ml DAPI for 5 minutes at room temperature. Cells were washed three times with PBS and slides were mounted in Vectashield fluorescence mounting media. Slides were imaged using a Zeiss Axioplan 2 Upright Microscope.

[3] = system: LS8817 cells; experiment: ATRX foci per cell by immunofluorescence in LS8817 cells
Experimental: as §1

[4] = system: LS8107 cells; experiment: Senescence analysis (SA-β-gal) in LS8107 cells
Experimental: (§2) Cells were plated at a concentration of 25,000 per well in a 4-well chamber slides (Lab-Tek) and treated for seven days with drug and stained for senescence-associated β-galactosidase (Cell Signaling kit #9860). Cell number was quantitated by DAPI staining and β-galactosidase staining quantitated as a proportion of total cells.

[5] = system: U2OS cells; experiment: Senescence analysis (SA-β-gal) in U2OS cells
Experimental: as §2

Row | Compound | cell state (quiescent or senescent) ([1]; LS8817 cells, 1 μM or 0.1 μM) | number of ATRX foci per cell [2] | average number of ATRX foci per cell ([3]; LS8817 cells, PD0332991 1 μM or 0.1 μM) | number of ATRX foci per cell ([3]; LS8817 cells, PD0332991 in the presence of exogenous MDM2 (tet-on-MDM2-Flag, doxycycline), compared to PD0332991 alone) | cell state (quiescent or senescent) ([4]; CDK4 inhibitor alone) | accumulation of SA-β-gal ([4]; PD0332991 followed by shMDM2) | cell state (quiescent or senescent) on CDK4 inhibition, by SA-β-gal ([5]; U2OS cells expressing exogenous ATRX) | cell state (quiescent or senescent) on CDK4 inhibition ([5]; U2OS cells that do not express endogenous ATRX) | accumulation of SA-β-gal staining ([1]; LS8817 cells expressing shATRX) | accumulation of SA-β-gal staining ([1]; LS8817 cells expressing shSCR) | ATRX foci in cells expressing shATRX ([3]; LS8817 cells expressing shATRX, 100 μM doxorubicin for five days) | average number of ATRX foci per cell ([3]; LS8817 cells, 100 μM doxorubicin for five days, control cells about 8)
1 | CC(=O)c1c(C)c2cnc(Nc3ccc(N4CCNCC4)cn3)nc2n(C2CCCC2)c1=O [PD0332991] | enter a senescent state | significant increase | significant increase | prevented an increase | entered a quiescent state | accumulation of SA-β-gal | entering a senescent state | entering a quiescent state versus a senescent state |  |  |  | 
2 | COc1cccc2c1C(=O)c1c(O)c3c(c(O)c1C2=O)C[C@@](O)(C(=O)CO)C[C@@H]3O[C@H]1C[C@H](N)[C@H](O)[C@H](C)O1 [doxorubicin] |  |  |  |  |  |  |  |  | did not significantly accumulate | significantly accumulated | not observed | about 35
